Measured values taken from patent US20260207483A1, “PHARMACEUTICAL CO[…] FOR THE TREATMENT OF OPHTHALMIC CONDITIONS” (Adtech Pharma, Inc., priority 2022, published 2026).

Legend:
[1] = Solubility of nabilone in water and common solvents (USP classification); assay type: physicochemical
Description: Nabilone is difficult to solubilize in most solvents such that preparing a liquid composition comprising nabilone is very challenging. […] These solvents are not suitable for use in human pharmaceutical formulations.

[2] = Solubility of nabilone in sesame oil; assay type: physicochemical; settings: 5% w/w of nabilone in sesame oil; for Nabilone recovered from oil phase (w/w in mg/mL): 250 mg/g added
Description: It is also challenging to solubilize nabilone in pharmaceutically acceptable oils, even at elevated temperatures.

With CCCCCCC(C)(C)c1cc(O)c2c(c1)OC(C)(C)C1CCC(=O)CC21 (centres unmarked) [Nabilone] the “USP Classification of solubility” value ([1]; 1,4-Dioxane) was “Freely Soluble”, the “USP Classification of solubility” value ([1]; 2-Methyltetrahydrofuran) was “Freely Soluble” and the “USP Classification of solubility” value ([1]; Acetone) was “Freely Soluble”. The “USP Classification of solubility” value ([1]; Dichloromethane) was “Freely Soluble”, the “USP Classification of solubility” value ([1]; Dimethoxyethane) was “Freely Soluble” and the “USP Classification of solubility” value ([1]; Dimethyl sulfoxide) was “Freely Soluble”. For the same compound, the “USP Classification of solubility” value ([1]; Dimethylformamide) was “Freely Soluble”, the “USP Classification of solubility” value ([1]; Methyl ethyl ketone) was “Freely Soluble” and the “USP Classification of solubility” value ([1]; Tetrahydrofuran) was “Freely Soluble”. For the same compound, the “USP Classification of solubility” value ([1]; p-Xylene) was “Freely Soluble”, the “Solubility in water (USP classification)” value ([1]; water at any pH) was “insoluble” and the “Observation After Centrifuge (14000 rpm, 10 minutes)” value ([2]; not heated) was “Clear solution”. For the same compound, the “Observation Before Centrifuge” value ([2]; not heated) was “Turbid”, the “Nabilone recovered from oil phase (w/w in mg/mL)” value ([2]; not heated) was 3.9 mg/mL and the “Observation After Centrifuge (14000 rpm, 10 minutes)” value ([2]; heated to 90° C. for 3 hours) was “Clear solution”. For the same compound, the “Observation Before Centrifuge” value ([2]; heated to 90° C. for 3 hours) was “Turbid” and the “Nabilone recovered from oil phase (w/w in mg/mL)” value ([2]; heated to 90° C. for 3 hours) was 6.3 mg/mL.
